We go through 38 molecules from patent US8604044B2, “Quinazoline based EGFR inhibitors containing a zinc binding moiety” (Curis, Inc., priority 2006, dated 2013).

Some results are limits rather than exact numbers.

The target in one test is T1, HER2 (Homo sapiens, UniProt P04626).
T1 construct: human HER2 amino acids 679-1255; host or cells: baculovirus in Sf9 insect cells
The test can be described thus: Radioisotope assay for HER2. It is filed as biochemical. The following applies: read-out: HER2/ErB2 IC50 grading. The procedure: Protocol for Radioisotope Assay for HER2
10 nM HER2 and 0.1 mg/ml polyEY were placed in the reaction buffer and 2 mM MnCl2, 1 μM ATP and 1% DMSO final were added. The reaction mixture was incubated for 2 hours at room temperature.
MW=91.6 kDa. […] Enzyme is in 25 mM Tris-HCl, pH 8.0, 100 mM NaCl, 0.05% Tween-20, 50% glycerol, 10 mM reduced glutathione, and 3 mM DTT.

For the next test, the system named is HDAC. The test can be described thus: HDAC fluorimetric assay (HDAC enzymatic activity, HeLa nuclear extract). Format: biochemical. The conditions noted are these: HeLa nuclear extract; read-out: HDAC IC50 grading. On the procedure:
HDAC inhibitors were screened using an HDAC fluorimetric assay kit (AK-500, Biomol, Plymouth Meeting, Pa.).
Each assay was setup as follows: Defrosted all kit components and kept on ice until use. […] Prepared dilutions of Trichostatin A (TSA, positive control) and tested compounds in assay buffer (5× of final concentration). Diluted Fluor de Lys™ Substrate in assay buffer to 100 uM (50 fold=2× final). Diluted Fluor de Lys™ developer concentrate 20-fold (e.g. 50 μl plus 950 μl Assay Buffer) in cold assay buffer. Second, diluted the 0.2 mM Trichostatin A 100-fold in the 1× Developer (e.g. 10 μl in 1 ml; final Trichostatin A concentration in the 1× Developer=2 μM; final concentration after addition to HDAC/Substrate reaction=1 μM). Added Assay buffer, diluted trichostatin A or test inhibitor to appropriate wells of the microtiter plate. Added diluted HeLa extract or other HDAC sample to all wells except for negative controls.

T1 sequence (P04626 679-1255): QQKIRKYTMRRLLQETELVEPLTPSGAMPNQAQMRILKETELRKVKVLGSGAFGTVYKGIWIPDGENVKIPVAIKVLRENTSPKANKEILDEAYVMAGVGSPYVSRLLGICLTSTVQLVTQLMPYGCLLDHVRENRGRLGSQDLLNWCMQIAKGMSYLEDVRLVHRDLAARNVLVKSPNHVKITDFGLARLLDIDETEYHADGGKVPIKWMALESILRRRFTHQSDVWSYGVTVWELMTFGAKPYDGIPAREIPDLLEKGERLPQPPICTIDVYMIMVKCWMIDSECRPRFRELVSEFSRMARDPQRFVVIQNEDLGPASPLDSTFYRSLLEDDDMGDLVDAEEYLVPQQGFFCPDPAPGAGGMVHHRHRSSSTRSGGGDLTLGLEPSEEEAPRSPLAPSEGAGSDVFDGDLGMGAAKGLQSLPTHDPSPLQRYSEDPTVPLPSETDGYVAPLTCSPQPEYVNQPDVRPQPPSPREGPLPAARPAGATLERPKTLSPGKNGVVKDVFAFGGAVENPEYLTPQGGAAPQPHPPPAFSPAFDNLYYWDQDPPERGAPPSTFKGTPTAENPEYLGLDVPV

`COc1cc2ncnc(NCc3ccccc3)c2cc1OCCCCCCC(=O)NO` [Compound 85, 7-(4-(Benzylamino)-7-methoxyquinazolin-6-yloxy)-N-hydroxyheptanamide]: the values for the IC50 at HER2 and in the test with HDAC were 0.1 to 1 µM and less than 0.1 µM, respectively. As to `COCCOc1cc2ncnc(Nc3ccc(F)c(Cl)c3)c2cc1NC(=O)CCCCCCC(=O)NO` [Compound 70, N^1-(4-(3-chloro-4-fluorophenylamino)-7-(2-methoxyethoxy)quinazolin-6-yl)-N^8-hydroxyoctanediamide], the IC50 on HER2 was less than 0.1 µM. For the molecule `COc1cc2c(Nc3ccc(F)c(Cl)c3)ncnc2cc1OCCCCCCC(=O)NO` [Compound 161, 7-(4-(3-chloro-4-fluorophenylamino)-6-methoxyquinazolin-7-yloxy)-N-hydroxyheptanamide], the figures for the IC50 on HER2 and in the test on HDAC were 0.1 to 1 µM and less than 0.1 µM, respectively.

In the case of `COCCOc1cc2ncnc(Nc3ccc(F)c(Cl)c3)c2cc1OCCCCCCC(=O)NO` [Compound 30, 7-(4-(3-Chloro-4-fluorophenylamino)-7-(2-methoxyethoxy)quinazolin-6-yloxy)-N-hydroxyheptanamide], the figures for the IC50 at HER2 and in the test on HDAC were 0.1 to 1 µM and less than 0.1 µM, respectively. The corresponding values for `COc1cc2ncnc(Nc3ccc(F)c(Cl)c3)c2cc1NC(=O)CCCCCCC(=O)NO` [Compound 40, N^1-(4-(3-chloro-4-fluorophenylamino)-7-methoxyquinazolin-6-yl)-N^8-hydroxyoctanediamide] are 0.1 to 1 µM and less than 0.1 µM.

For the molecule `C#Cc1cccc(Nc2ncnc3cc(OC)c(OCCCCCC(=O)NO)cc23)c1` [Compound 11, 6-(4-(3-ethynylphenylamino)-7-methoxyquinazolin-6-yloxy)-N-hydroxyhexanamide], the figures for the IC50 on HER2 and with HDAC were 0.1 to 1 µM and less than 0.1 µM, respectively. On to `COc1cc2ncnc(Nc3ccc(F)c(Cl)c3)c2cc1OCCCC(=O)NO` [Compound 3, 4-(4-(3-Chloro-4-fluorophenylamino)-7-methoxyquinazolin-6-yloxy)-N-hydroxybutanamide], for which the IC50 with HDAC is greater than 10 µM.

As for `C#Cc1cc(Nc2ncnc3cc(OCCOC)c(OCCCCCCC(=O)NO)cc23)ccc1F` [Compound 76], the IC50 on HER2 was 0.1 to 1 µM; in the test with HDAC, less than 0.1 µM. Regarding `O=C(COc1ccc2ncnc(Nc3ccc(F)c(Cl)c3)c2c1)NO` [Compound 13, 2-(4-(3-chloro-4-fluorophenylamino)quinazolin-6-yloxy)-N-hydroxyacetamide], the IC50 with HDAC was greater than 10 µM. On the same count and under the same terms, for `COc1cc2ncnc(NCc3ccc(F)c(F)c3)c2cc1OCCCCCCC(=O)NO` [Compound 87, 7-(4-(3,4-difluorobenzylamino)-7-methoxyquinazolin-6-yloxy)-N-hydroxyheptanamide] the value was less than 0.1 µM. Regarding `COc1cc2ncnc(Nc3ccc(F)c(Cl)c3)c2cc1C#CCCC(=O)NO` [Compound 138], the IC50 in the test on HDAC fell in the range of 1 to 10 µM.

Regarding `COCCOc1cc2ncnc(Nc3ccc(F)c(Cl)c3)c2cc1NC(=O)CCCCC(=O)NO` [Compound 69, N^1-(4-(3-chloro-4-fluorophenylamino)-7-(2-methoxyethoxy)quinazolin-6-yl)-N^6-hydroxyadipamide], the IC50 with HDAC is 0.1 to 1 µM. Take `COc1cc2ncnc(Nc3ccc(F)c(Cl)c3)c2cc1-c1ccc(C#CCCCC(=O)NO)o1` [Compound 125]: in the test with HDAC, the IC50 lay in the range of 0.1 to 1 µM. On the same count and under the same terms, for `COc1cc2ncnc(Nc3ccc(F)c(Cl)c3)c2cc1NC(=O)Nc1ccc(C(=O)NO)cc1` [Compound 93] the value was 1 to 10 µM; for `C#Cc1cccc(Nc2ncnc3ccc(OCCCCC(=O)NO)cc23)c1` [Compound 22], less than 0.1 µM.

As for `O=C(CCCCCCOc1ccc2ncnc(Nc3ccc(F)c(Cl)c3)c2c1)NO` [Compound 18, 7-(4-(3-chloro-4-fluorophenylamino)quinazolin-6-yloxy)-N-hydroxyheptanamide], the IC50 was 0.1 to 1 µM on HER2 and less than 0.1 µM with HDAC.

As to `COc1cc2ncnc(Nc3ccc(F)c(Cl)c3)c2cc1Oc1ccc(C#CCCCC(=O)NO)cc1` [Compound 205], the IC50 in the test with HDAC was 1 to 10 µM. Still for that read-out and setting: the result for `C#Cc1cccc(Nc2ncnc3cc(OC)c(OCCCCC(=O)NO)cc23)c1` [Compound 10, 5-(4-(3-Ethynylphenylamino)-7-methoxyquinazolin-6-yloxy)-N-hydroxypentanamide] reads 0.1 to 1 µM.

Regarding `COCCOc1cc2ncnc(Nc3ccc(F)c(Cl)c3)c2cc1NC(=O)CCCC(=O)NO` [Compound 68, N^1-(4-(3-chloro-4-fluorophenylamino)-7-(2-methoxyethoxy)quinazolin-6-yl)-N^5-hydroxyglutaramide], the IC50 in the test with HDAC is 1 to 10 µM. As for `C#Cc1cccc(Nc2ncnc3cc(OC)c(NC(=O)CCCC(=O)NO)cc23)c1` [Compound 42, N^1-(4-(3-ethynylphenylamino)-7-methoxyquinazolin-6-yl)-N^5-hydroxyglutaramide], the IC50 in the test on HDAC was 0.1 to 1 µM. Still for that read-out and setting: for `COc1cc2ncnc(Nc3ccc(F)c(Cl)c3)c2cc1NC(=O)CCCC(=O)NO` [Compound 38, N^1-(4-(3-chloro-4-fluorophenylamino)-7-methoxyquinazolin-6-yl)-N^5-hydroxyglutaramide] the value was 1 to 10 µM; for `C#Cc1cccc(CNc2ncnc3cc(OC)c(OCCCCCCC(=O)NO)cc23)c1` [Compound 90, 7-(4-(3-ethynylbenzylamino)-7-methoxyquinazolin-6-yloxy)-N-hydroxyheptanamide], less than 0.1 µM. As for `C#Cc1cccc(Nc2ncnc3cc(OC)c(OCC(=O)NO)cc23)c1` [Compound 7, 2-(4-(3-ethynylphenylamino)-7-methoxyquinazolin-6-yloxy)-N-hydroxyacetamide], the IC50 is less than 0.1 µM on HER2 and greater than 10 µM in the test on HDAC.

`COc1cc2ncnc(Nc3ccc(F)c(Cl)c3)c2cc1OCCC(=O)NO` [Compound 2]: the IC50 in the test with HDAC was greater than 10 µM. Consider `O=C(/C=C/c1ccc(OCCOc2ccc3ncnc(Nc4ccc(F)c(Cl)c4)c3c2)cc1)NO` [Compound 63], for which the IC50 in the test with HDAC fell in the range of 0.1 to 1 µM.

Regarding `COc1cc2ncnc(Nc3ccc(F)c(Cl)c3)c2cc1OCCCCCCN(O)C(C)=O` [Compound 103, N-(6-(4-(3-chloro-4-fluorophenylamino)-7-methoxyquinazolin-6-yloxy)hexyl)-N-hydroxyacetamide], in the test with HDAC, the IC50 was greater than 10 µM. The same measure, in the same setting: for `COc1cc2ncnc(NCc3ccc(F)cc3)c2cc1OCCCCCCC(=O)NO` [Compound 86, 7-(4-(4-fluorobenzylamino)-7-methoxyquinazolin-6-yloxy)-N-hydroxyheptanamide] the value was less than 0.1 µM.

As to `C#Cc1cc(Nc2ncnc3cc(OC)c(OCCCCCCC(=O)NO)cc23)ccc1F` [Compound 75, 7-(4-(3-ethynyl-4-fluorophenylamino)-7-methoxyquinazolin-6-yloxy)-N-hydroxyheptanamide], the IC50 is 0.1 to 1 µM on HER2 and less than 0.1 µM in the test on HDAC. On to `O=C(CCOc1ccc2ncnc(Nc3ccc(F)c(Cl)c3)c2c1)NO` [Compound 14], for which the IC50 in the test with HDAC was 1 to 10 µM.

For the molecule `COc1cc2ncnc(N[C@H](C)c3ccccc3)c2cc1OCCCCCC(=O)NO` [Compound 77, (R)—N-hydroxy-6-(7-methoxy-4-(1-phenylethylamino)quinazolin-6-yloxy)-hexanamide], the IC50 in the test with HDAC was less than 0.1 µM. For the molecule `COc1cc2ncnc(N[C@H](C)c3ccccc3)c2cc1OCCCCCCC(=O)NO` [Compound 79, (R)—N-hydroxy-7-(7-methoxy-4-(1-phenylethylamino)quinazolin-6-yloxy)heptanamide], the values for the IC50 at HER2 and with HDAC were 0.1 to 1 µM and less than 0.1 µM, respectively. For `COc1cc2ncnc(NCc3cccc(Br)c3)c2cc1OCCCCCCC(=O)NO` [Compound 89, 7-(4-(3-bromobenzylamino)-7-methoxyquinazolin-6-yloxy)-N-hydroxyheptanamide], the IC50 with HDAC was less than 0.1 µM. For the molecule `COc1cc2ncnc(Nc3ccc(F)c(Cl)c3)c2cc1CCCCC(=O)NO` [Compound 144, 5-(4-(3-chloro-4-fluorophenylamino)-7-methoxyquinazolin-6-yl)-N-hydroxypentanamide], the IC50 in the test on HDAC was 0.1 to 1 µM. The same measure, in the same setting: the result for `C#Cc1cccc(Nc2ncnc3cc(OC)c(OCCC(=O)NO)cc23)c1` [Compound 8] reads greater than 10 µM; that for `COc1cc2ncnc(Nc3ccc(F)c(Cl)c3)c2cc1-c1ccc(C#CCCC(=O)NO)o1` [Compound 124], greater than 10 µM.

As for `COc1cc2ncnc(Nc3ccc(F)c(Cl)c3)c2cc1OCC(=O)NO` [Compound 1, 2-(4-(3-Chloro-4-fluorophenylamino)-7-methoxyquinazolin-6-yloxy)-N-hydroxyacetamide], in the test with HDAC, the IC50 was greater than 10 µM. On to `C#Cc1cccc(Nc2ncnc3cc(OC)c(NC(=O)CCCCCCC(=O)NO)cc23)c1` [Compound 44, N^1-(4-(3-ethynylphenylamino)-7-methoxyquinazolin-6-yl)-N^8-hydroxyoctanediamide], for which the values for the IC50 at HER2 and with HDAC were 0.1 to 1 µM and less than 0.1 µM, respectively. Regarding `COc1cc2ncnc(N[C@H](C)c3ccc(Cl)cc3)c2cc1OCCCCCCC(=O)NO` [Compound 82, (R)-7-(4-(1-(4-chlorophenyl)ethylamino)-7-methoxyquinazolin-6-yloxy)-N-hydroxyheptanamide], in the test with HDAC, the IC50 lay within 0.1 to 1 µM.
